From patent US20210255193A1, “LYSINE REACTIVE PROBES AND USES THEREOF” (The Scripps Research Institute, priority 2017, published 2021)

Assays:
[1] = target: T1, AGFG1 Arf-GAP domain and FG repeat-containing protein 1 (Homo sapiens, UniProt P52594); test: competitive isoTOP-ABPP; type: binding; design: key to isoTOP-ABPP reactivity ratio at lysine P52594_K134: R = MS1 peak area ratio, DMSO (heavy) / compound-treated (light); details: for isoTOP-ABPP reactivity ratio at lysine P52594_K134 / isoTOP-ABPP ratio (R) at liganded lysine P52594_K134: 50 uM, in vitro; for isoTOP-ABPP reactivity ratio at lysine P52594_K134: 231 sol; for isoTOP-ABPP ratio (R) at liganded lysine P52594_K134: sol, 231
T1 construct: isoTOP-ABPP experiments performed in cell lysates (in vitro); endogenous in cells; host or cells: soluble proteome of human cancer cell lines (MDA-MB-231, Ramos, Jurkat)
T1 sequence (P52594 1-562): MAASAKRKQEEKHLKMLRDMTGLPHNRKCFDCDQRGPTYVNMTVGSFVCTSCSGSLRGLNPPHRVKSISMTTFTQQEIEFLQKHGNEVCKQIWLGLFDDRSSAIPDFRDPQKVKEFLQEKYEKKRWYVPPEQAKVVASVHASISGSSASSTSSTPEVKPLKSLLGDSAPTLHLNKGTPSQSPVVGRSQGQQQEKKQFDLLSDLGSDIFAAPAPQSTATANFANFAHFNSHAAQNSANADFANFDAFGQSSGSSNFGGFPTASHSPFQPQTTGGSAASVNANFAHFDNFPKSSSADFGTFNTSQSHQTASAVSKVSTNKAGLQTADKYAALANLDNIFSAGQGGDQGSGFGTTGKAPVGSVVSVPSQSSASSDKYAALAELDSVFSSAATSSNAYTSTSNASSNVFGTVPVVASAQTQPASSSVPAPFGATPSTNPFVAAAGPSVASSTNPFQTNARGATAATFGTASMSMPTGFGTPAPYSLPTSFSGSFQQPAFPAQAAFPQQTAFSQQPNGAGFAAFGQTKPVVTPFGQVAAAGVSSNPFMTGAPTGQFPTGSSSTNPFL
Description: (§1) In vitro covalent fragment treatment for isoTOP-ABPP. All compounds were made up as solutions in DMSO (100×) and were used at a final concentration of 50 μM for activated esters and 100 μM for guanidinylating agents. For each profiling sample, 0.5 ml of lysate was treated with 5 μl of the 100× compound stock solution or 5 μl of DMSO. Samples were treated with activated esters for
(§2) STP-alkyne labeling and click chemistry. For concentration-dependent reactivity measurements by isoTOP-ABPP, 0.5 ml proteome aliquots were treated at ambient temperature with 1 mM STP-alkyne 1 (5 μl of 100 mM stock in DMSO) and 0.1 mM STP alkyne 1 (5 μl of 10 mM stock in DMSO), respectively. For competitive isoTOP-ABPP, after in vitro fragment treatment (detailed above), the samples were labeled for 1 h at ambient temperature with 0.1 mM STP-alkyne 1 (5 μl of 10 mM stock in DMSO). Samples were conjugated by copper-mediated azide-alkyne cycloaddition (CuAAC) to either the light (1 mM STP-alkyne or fragment treated) or heavy (0.1 mM STP-alkyne or DMSO treated) TEV tags (10 μl of 5 mM stocks in DMSO, final concentration=100 μM) using tris(2-carboxyethyl)phosphine hydrochloride
(§3) R value calculation and processing. The ratios of light and heavy MS1 peaks for each unique peptide were quantified with a CIMAGE software using default parameters (3 MS1 acquisitions per peak and signal to noise threshold set to 2.5). For reactivity measurements by isoTOP-ABPP, the R value was calculated from the ratio of MS1 peak areas, comparing the 1 mM STP alkyne sample (light TEV tag) with the 0.1 mM STP alkyne sample (heavy TEV tag). For competitive isoTOP-ABPP, the R value was calculated from the ratio of MS1 peak areas, comparing the DMSO treated sample (heavy TEV tag) with the compound treated sample (light TEV tag). […] Ratios for unique peptide entries are calculated for each experiment; overlapping peptides with the same modified lysine (for example, different charge states, MudPIT chromatographic steps or tryptic termini) are grouped together and the median ratio is reported as the final ratio (R). The peptide ratios reported by CIMAGE were further filtered to ensure the removal or correction of low-quality ratios in each individual data set. The quality filters applied were the following: removal of half tryptic peptides; for ratios with high standard deviations from the median (90% of the median or above) the lowest ratio was taken instead of the median; removal of peptides with R=20 and only a single MS2 event triggered during the elution of the parent ion; manual annotation of all the peptides with ratios of 20, removing any peptides with low quality elution profiles that remained after the previous curation steps (only done for competitive isoTOP-ABPP).
(§4) Cross-data processing for fragment screening. For compound treated samples, biological replicates of the same condition were averaged, if the standard deviation was below 60% of the mean; otherwise, for lysines with at least one R value <4 for a particular compound, the lowest value of the ratio set was taken. For lysines, where all R values for a particular compound were ≥4, the average was reported. For peptides containing several possible modified lysines, the lysine with the highest number of quantification events was used for analysis and the remaining, redundant peptides were reported as alternative modification sites. Peptides included in the aggregate dataset (those used for further bioinformatics and statistical analyses) were required to have been quantified in 2 experiments for competitive isoTOP-ABPP. Lysines were categorized as liganded, if they had at least one ratio R≥4 (hit fragments). For liganded lysines with R=20 for all liganding events, lysines were required to have been quantified with R=20 in two separate experiments and were further required to have been quantified with R<20 in one additional experiment.

[2] = target: T2, ABHD10 Abhydrolase domain-containing protein 10, mitochondrial (Homo sapiens, UniProt Q9NUJ1); test: competitive isoTOP-ABPP; type: binding; design: key to isoTOP-ABPP reactivity ratio at lysine Q9NUJ1_K185: R = MS1 peak area ratio, DMSO (heavy) / compound-treated (light); capped at 20; details: for isoTOP-ABPP reactivity ratio at lysine Q9NUJ1_K185 / isoTOP-ABPP ratio (R) at liganded lysine Q9NUJ1_K185: 50 uM, in vitro; for isoTOP-ABPP reactivity ratio at lysine Q9NUJ1_K185: 231 sol; for isoTOP-ABPP ratio (R) at liganded lysine Q9NUJ1_K185: sol, 231
T2 construct: endogenous in cells; host or cells: MDA-MB-231 lysate
T2 sequence (Q9NUJ1 53-306): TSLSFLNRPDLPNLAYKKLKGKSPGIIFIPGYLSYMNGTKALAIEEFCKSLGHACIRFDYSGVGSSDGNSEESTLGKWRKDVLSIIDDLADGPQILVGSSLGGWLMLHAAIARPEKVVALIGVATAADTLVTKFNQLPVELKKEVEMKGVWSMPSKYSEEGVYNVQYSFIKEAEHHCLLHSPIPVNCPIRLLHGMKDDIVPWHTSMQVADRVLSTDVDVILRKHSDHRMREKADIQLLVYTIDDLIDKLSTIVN
Description: as §1, §2, §3, §4

SMILES: O=C(Oc1ccc([N+](=O)[O-])cc1[N+](=O)[O-])c1cc(C(F)(F)F)cc(C(F)(F)F)c1 [fragment 31, 2,4-Dinitrophenyl 3,5-bis(trifluoromethyl)benzoate]
- isoTOP-ABPP reactivity ratio at lysine P52594_K134 [1]: 1.2
- isoTOP-ABPP reactivity ratio at lysine Q9NUJ1_K185 [2]: 4.4

SMILES: Cn1cc(CC(=O)Oc2ccc([N+](=O)[O-])cc2[N+](=O)[O-])c2ccccc21 [fragment 32, 2,4-Dinitrophenyl 2-(1-methyl-1H-indol-3-yl)acetate]
- isoTOP-ABPP reactivity ratio at lysine P52594_K134 [1]: 19.9
- isoTOP-ABPP reactivity ratio at lysine Q9NUJ1_K185 [2]: 1.4

SMILES: COc1cc(CCC(=O)Oc2ccc([N+](=O)[O-])cc2[N+](=O)[O-])cc(OC)c1OC [fragment 33, 2,4-Dinitrophenyl 3-(3,4,5-trimethoxyphenyl)propanoate]
- isoTOP-ABPP reactivity ratio at lysine P52594_K134 [1]: 20.0
- isoTOP-ABPP reactivity ratio at lysine Q9NUJ1_K185 [2]: 2.1

SMILES: O=C(Oc1ccc([N+](=O)[O-])cc1[N+](=O)[O-])C1CCN(C(=O)OCc2ccccc2)CC1 [fragment 34, 1-Benzyl 4-(2,4-dinitrophenyl) piperidine-1,4-dicarboxylate]
- isoTOP-ABPP ratio (R) at liganded lysine P52594_K134 [1]: 20.0
- isoTOP-ABPP ratio (R) at liganded lysine Q9NUJ1_K185 [2]: 1.5

SMILES: O=C(CCc1coc2cc(F)ccc2c1=O)Oc1ccc([N+](=O)[O-])cc1[N+](=O)[O-] [fragment 36, 2,4-Dinitrophenyl 3-(7-fluoro-4-oxo-4H-chromen-3-yl)propanoate]
- isoTOP-ABPP ratio (R) at liganded lysine P52594_K134 [1]: 20.0
- isoTOP-ABPP ratio (R) at liganded lysine Q9NUJ1_K185 [2]: 1.4

SMILES: O=C(Oc1ccc([N+](=O)[O-])cc1[N+](=O)[O-])c1ccc(-c2ccccc2)cc1 [fragment 37, 2,4-Dinitrophenyl [1,1′-biphenyl]-4-carboxylate]
- isoTOP-ABPP ratio (R) at liganded lysine P52594_K134 [1]: 1.1
- isoTOP-ABPP ratio (R) at liganded lysine Q9NUJ1_K185 [2]: 1.2

SMILES: O=C(CC12CC3CC(CC(C3)C1)C2)Oc1ccc([N+](=O)[O-])cc1[N+](=O)[O-] [fragment 38, 2,4-Dinitrophenyl 2-(adamantan-1-yl)acetate]
- isoTOP-ABPP ratio (R) at liganded lysine P52594_K134 [1]: 1.4
- isoTOP-ABPP ratio (R) at liganded lysine Q9NUJ1_K185 [2]: 3.3

SMILES: O=C(Oc1ccc([N+](=O)[O-])cc1[N+](=O)[O-])c1ccc(Oc2ccccc2)cc1 [fragment 39, 2,4-Dinitrophenyl 4-phenoxybenzoate]
- isoTOP-ABPP ratio (R) at liganded lysine P52594_K134 [1]: 1.0
- isoTOP-ABPP ratio (R) at liganded lysine Q9NUJ1_K185 [2]: 1.0

SMILES: O=C(Oc1ccc([N+](=O)[O-])cc1[N+](=O)[O-])c1ccccc1Nc1cccc(C(F)(F)F)c1 [fragment 40, 2,4-Dinitrophenyl 2-((3-(trifluoromethyl)phenyl)amino)benzoate]
- isoTOP-ABPP ratio (R) at liganded lysine P52594_K134 [1]: 0.8
- isoTOP-ABPP ratio (R) at liganded lysine Q9NUJ1_K185 [2]: 0.9

SMILES: CC(C)(C)OC(=O)NCCCC(=O)Oc1ccc([N+](=O)[O-])cc1[N+](=O)[O-] [fragment 41, 2,4-Dinitrophenyl 4-((tert-butoxycarbonyl)amino)butanoate]
- isoTOP-ABPP ratio (R) at liganded lysine P52594_K134 [1]: 20.0
- isoTOP-ABPP ratio (R) at liganded lysine Q9NUJ1_K185 [2]: 3.3

SMILES: O=C(Oc1ccc([N+](=O)[O-])cc1[N+](=O)[O-])C(c1ccccc1)(c1ccccc1)c1ccccc1 [fragment 42, 2,4-Dinitrophenyl 2,2,2-triphenylacetate]
- isoTOP-ABPP ratio (R) at liganded lysine P52594_K134 [1]: 1.0
- isoTOP-ABPP ratio (R) at liganded lysine Q9NUJ1_K185 [2]: 1.0

SMILES: CC(=O)Oc1ccc([N+](=O)[O-])cc1[N+](=O)[O-] [fragment 43, 2,4-Dinitrophenyl acetate]
- isoTOP-ABPP ratio (R) at liganded lysine P52594_K134 [1]: 4.8
- isoTOP-ABPP ratio (R) at liganded lysine Q9NUJ1_K185 [2]: 1.3

SMILES: N#Cc1ccc(C(=O)Oc2ccc([N+](=O)[O-])cc2[N+](=O)[O-])cc1 [fragment 44, 2,4-Dinitrophenyl 4-cyanobenzoate]
- isoTOP-ABPP ratio, lysine P52594_K134 ([1]; 50 uM_231_sol_in vitro): 1.5
- isoTOP-ABPP ratio, lysine Q9NUJ1_K185 ([2]; 50 uM_231_sol_in vitro): 1.2

SMILES: O=C(CCc1ccc2c(c1)OCO2)Oc1ccc([N+](=O)[O-])cc1[N+](=O)[O-] [fragment 45, 2,4-Dinitrophenyl 3-(benzo[d][1,3]dioxol-5-yl)propanoate]
- isoTOP-ABPP ratio, lysine P52594_K134 ([1]; 50 uM_231_sol_in vitro): 20.0
- isoTOP-ABPP ratio, lysine Q9NUJ1_K185 ([2]; 50 uM_231_sol_in vitro): 1.2

SMILES: O=C(ON1C(=O)CCC1=O)c1cc(C(F)(F)F)cc(C(F)(F)F)c1 [fragment 46, 3,5-Bis(trifluoromethyl)benzoic acid NHS ester]
- isoTOP-ABPP ratio, lysine P52594_K134 ([1]; 50 uM_231_sol_in vitro): 1.0
- isoTOP-ABPP ratio, lysine Q9NUJ1_K185 ([2]; 50 uM_231_sol_in vitro): 1.2

SMILES: O=C(Oc1c(F)c(F)cc(F)c1F)c1cc(C(F)(F)F)cc(C(F)(F)F)c1 [fragment 48, 2,3,5,6-Tetrafluorophenyl 3,5-bis(trifluoromethyl)benzoate]
- isoTOP-ABPP ratio, lysine P52594_K134 ([1]; 50 uM_231_sol_in vitro): 1.0
- isoTOP-ABPP ratio, lysine Q9NUJ1_K185 ([2]; 50 uM_231_sol_in vitro): 2.7

SMILES: COC(=O)NC(=NC(=O)OCC1c2ccccc2-c2ccccc21)n1cccn1 [fragment 49, N-Methoxycarbonyl-N′-9-fluorenylmethoxycarbonyl-pyrazole-1-carboxamidine]
- isoTOP-ABPP ratio, lysine P52594_K134 ([1]; 100 uM_231_sol_in vitro): 0.8
- isoTOP-ABPP ratio, lysine Q9NUJ1_K185 ([2]; 100 uM_231_sol_in vitro): 1.5

SMILES: CC(C)(C)OC(=O)N=C(NC(=O)OC(C)(C)C)n1cccn1 [fragment 50, reference compound]
- isoTOP-ABPP ratio, lysine P52594_K134 ([1]; 100 uM_231_sol_in vitro): 1.0
- isoTOP-ABPP ratio, lysine Q9NUJ1_K185 ([2]; 100 uM_231_sol_in vitro): 1.3

SMILES: NC(=O)c1cc(C(F)(F)F)cc(C(F)(F)F)c1 [fragment 51, reference compound]
- isoTOP-ABPP ratio, lysine P52594_K134 ([1]; 50 uM_231_sol_in vitro): 0.9
- isoTOP-ABPP ratio, lysine Q9NUJ1_K185 ([2]; 50 uM_231_sol_in vitro): 1.0
